Reference: patent US20180179524A1, “COMPOSITIONS AND METHODS FOR INHIBITING CELL PROLIFERATION” (President and Fellows of Harvard College, priority 2015, published 2018)

Legend:
[1] = tested on: Tsc2−/− MEFs; experiment: Proliferation of Tsc2-/- MEFs relative to Tsc2+/+ MEFs treated with compounds (FIG. 9); assay type: cell-based; conditions: for cytotoxic effect on Tsc2−/− cells / selective effects on cell viability in Tsc2−/− cells compared with rapamycin: JWD07 5 μM, AT7915 2 μM; for cytotoxic effect on Tsc2−/− cells: Mizoribine 2.5 μM; for selective effects on cell viability in Tsc2−/− cells compared with rapamycin: Mizoribine 2.5 μM vs Rapamycin 20 nM
Method: FIG. 9 is a series of panels, panels A-E showing TSC2 loss confers sensitivity to CCNT1, RNGTT, or CDK11 loss of function. Panel A is a schematic of the methods disclosed herein. […] Panel B represents data corresponding to the CDK9/CDK11 inhibitor JWD07 (5 μM). Panel C represents data corresponding to the CDK2/CDK9/CDK11 inhibitor AT7915 (2 μM). Panel D represents data corresponding to the RNGTT/IMPDH inhibitor Mizoribine (2.5 μM). Panel E represents data corresponding to the mTORC1 inhibitor Rapamycin (20 nM).

[2] = tested on: luciferase-based reporter constructs in S2R+ cells; experiment: Luciferase-based mutation reporter assay (sgRNA mutation efficiency); assay type: cell-based, Drosophila; conditions: sgRNAs with no mismatches targeting luciferase-based reporter in S2R+ cells; mutation rate = 1/Firefly luciferase normalized to Renilla
Method: The luciferase reporter vector was constructed by PCR amplifying the metallothionein promoter from pMK33 and luciferase gene from pGL3 (Table 1) and combining these with annealed oligos containing a gRNA target site (Table 1 and Table 2) and a custom made cloning vector using Golden Gate assembly.
Luciferase assays were performed by transfecting S2R+ cells with the relevant pl018 plasmid, luciferase reporter and pRL-TK (Promega) (to allow normalization of transfection efficiencies between samples) in 96 well plates using Effectene Transfection Reagent (Qiagen) according to the manufacturer's recommendations. Twenty-four hours after transfection, CuSO4 was added to the cell media at a final concentration of 140 μM and cells were incubated for a further 16 hours.
Firefly and Renilla luciferase readings were taken using the Dual-Glo Luciferase Assay System (Promega) according to manufacturer's instructions and a SpectraMax Paradigm Multi-Mode Microplate Detection Platform (Molecular Devices).
Because the rate of mutations varies widely between different sgRNAs (25-27), whether efficiency could be predicted based on the sgRNA sequence was tested. 75 additional sgRNAs were generated, each targeting luciferase-based reporter constructs with no mismatches and tested mutation efficiency for each. Using this panel of sgRNAs and associated efficiencies, the presence or absence of a correlation between GC content and mutation rate was examined. […] Next, whether a more general sequence-based approach was tested for its ability to improve efficiency prediction. The nucleotide content of all 75 sgRNAs was examined, considering each position separately and generated a probability matrix linking nucleotide content with mutation rate (FIG. 1, panel B). This was then used to generate predicted efficiency scores based on sgRNA sequence. […] Note that sgRNAs targeting close to the 3′ end of genes or with apparent viability effects were not included in this analysis. Finally, predicted scores were generated for all sgRNA target sites in the Drosophila genome and annotated.

| Molecule | Mean efficiency [2] | further results |
| --- | --- | --- |
| O=C(NC1CCNCC1)c1n[nH]cc1NC(=O)c1c(Cl)cccc1Cl [AT7915] |  | proliferation of Tsc2−/− MEFs relative to Tsc2+/+ MEFs ([1]; 2 μM, FIG. 9 panel C): selectively reduce proliferation; cytotoxic effect on Tsc2−/− cells [1]: exert a cytotoxic effect; selective effects on cell viability in Tsc2−/− cells compared with rapamycin [1]: superior to rapamycin |
| NC(=O)c1ncn([C@@H]2O[C@H](CO)[C@@H](O)[C@H]2O)c1O [Mizoribine] |  | proliferation of Tsc2−/− MEFs relative to Tsc2+/+ MEFs ([1]; 2.5 μM, FIG. 9 panel D): selectively reduce proliferation; cytotoxic effect on Tsc2−/− cells [1]: exert a cytotoxic effect; selective effects on cell viability in Tsc2−/− cells compared with rapamycin [1]: superior to rapamycin |
| GCCCAGGGGGAATCGGCCGC: sgRNA targeting a luciferase-based reporter construct, no mismatches (chemistry not given here) | 0.4072 |  |
| GCCCGAAAGACACGTTTTTT: sgRNA targeting a luciferase-based reporter construct, no mismatches (chemistry not given here) | 0.197 |  |
| GCGAGTTATCTATCCCCAGG: sgRNA targeting a luciferase-based reporter construct, no mismatches (chemistry not given here) | 0.4749 |  |
| GCTCTGGACCATACGGGGAT: sgRNA targeting a luciferase-based reporter construct, no mismatches (chemistry not given here) | 0.1746 |  |
| GGAATAACCACGTCCCGCGT: sgRNA targeting a luciferase-based reporter construct, no mismatches (chemistry not given here) | 0.2894 |  |
| GGAGCGAGTTATCTATCCCC: sgRNA targeting a luciferase-based reporter construct, no mismatches (chemistry not given here) | 0.06181 |  |
| GGATGTTCCGGCACAACGCC: sgRNA targeting a luciferase-based reporter construct, no mismatches (chemistry not given here) | 0.2753 |  |
| GGCACCGGGTAGCCTTGCGC: sgRNA targeting a luciferase-based reporter construct, no mismatches (chemistry not given here) | 0.3497 |  |
| GGGCTCCAGGCTGCGCGCAA: sgRNA targeting a luciferase-based reporter construct, no mismatches (chemistry not given here) | 0.2308 |  |
| GGTTACCAACTCAGGACCCG: sgRNA targeting a luciferase-based reporter construct, no mismatches (chemistry not given here) | 0.4858 |  |
| GGTTCACTATTGGGGCGATC: sgRNA targeting a luciferase-based reporter construct, no mismatches (chemistry not given here) | 0.1771 |  |
| GTCGGAACCTGAGTCGTTTT: sgRNA targeting a luciferase-based reporter construct, no mismatches (chemistry not given here) | 0.5891 |  |
| GTGCTGCGCCAACCCAAATA: sgRNA targeting a luciferase-based reporter construct, no mismatches (chemistry not given here) | 0.0849 |  |
| GTGGAATCTACTGTGGAATC: sgRNA targeting a luciferase-based reporter construct, no mismatches (chemistry not given here) | 0.2969 |  |
| GTGTCCAGGCTCGTCATGCC: sgRNA targeting a luciferase-based reporter construct, no mismatches (chemistry not given here) | 0.8603 |  |

| Molecule | Mean efficiency [2] | further results |
| --- | --- | --- |
| TAAGACATACGTACGCCCAG: sgRNA targeting a luciferase-based reporter construct, no mismatches (chemistry not given here) | 0.1814 |  |
| TCCTATTACTGCGTGCAGCC: sgRNA targeting a luciferase-based reporter construct, no mismatches (chemistry not given here) | 1.342 |  |
| TCGAGGATGGGACGCTTATC: sgRNA targeting a luciferase-based reporter construct, no mismatches (chemistry not given here) | 0.5053 |  |
| TCGATGACGCCCGGGTTAAC: sgRNA targeting a luciferase-based reporter construct, no mismatches (chemistry not given here) | 0.26 |  |
| TCGCGGGCTTGCATGACGCG: sgRNA targeting a luciferase-based reporter construct, no mismatches (chemistry not given here) | 0.3295 |  |
| TCGTACCGCACCGGTATTTT: sgRNA targeting a luciferase-based reporter construct, no mismatches (chemistry not given here) | 0.1565 |  |
| TGACGCCTCAGGGTGCCGTC: sgRNA targeting a luciferase-based reporter construct, no mismatches (chemistry not given here) | 0.6594 |  |
| TGCGCTTACCGACGATTGGG: sgRNA targeting a luciferase-based reporter construct, no mismatches (chemistry not given here) | 0.1109 |  |
| TGCGGTCGCGTGAGAAATAT: sgRNA targeting a luciferase-based reporter construct, no mismatches (chemistry not given here) | 0.02876 |  |
| TGTTCCCTACACGGCGCCAG: sgRNA targeting a luciferase-based reporter construct, no mismatches (chemistry not given here) | 0.2531 |  |
| TTCTCCGCTGTTATCCTATA: sgRNA targeting a luciferase-based reporter construct, no mismatches (chemistry not given here) | 0.08182 |  |
| TTCTGAGTACATGTGATACC: sgRNA targeting a luciferase-based reporter construct, no mismatches (chemistry not given here) | 0.2974 |  |
| TTGACATCAGCGCGCGAGGC: sgRNA targeting a luciferase-based reporter construct, no mismatches (chemistry not given here) | 0.3893 |  |
| TTGGCCGCGACCTGTTTATC: sgRNA targeting a luciferase-based reporter construct, no mismatches (chemistry not given here) | 0.9282 |  |
| TTGTTCGAAGATCTGCGCGA: sgRNA targeting a luciferase-based reporter construct, no mismatches (chemistry not given here) | 0.2212 |  |
| TTGTTTGCTGGTACAAACGC: sgRNA targeting a luciferase-based reporter construct, no mismatches (chemistry not given here) | 0.2993 |  |
| TTTTTTTGGGATCATATACG: sgRNA targeting a luciferase-based reporter construct, no mismatches (chemistry not given here) | 0.1278 |  |
